Numbered stars: 1 amine (or outer) side, 2 acyl side, 3 side chain; on linkers, the order of the positions; unused ones are H or OH. Bridge positions count the residues as written; N and C are the ends. Square brackets hold non-standard residues; d marks the D form. Peptide text beside a SMILES is read from it. * marks the point of attachment. hPhe(3-Cl-4-CF3) = N[C@@H](CCc1ccc(C(F)(F)F)c(Cl)c1)C(=O)O; NMePhe(4-Me) = CN[C@@H](Cc1ccc(C)cc1)C(=O)O; NMePhe(4-F) = CN[C@@H](Cc1ccc(F)cc1)C(=O)O; NMedβ3hAla = C[C@H](CC(=O)[*:2])N(C)[*:1]; NMeAla(cPent) = CN[C@@H](CC1CCCC1)C(=O)O; NMeGly(cPent) = CN[C@H](C(=O)O)C1CCCC1; NMeCha = CN[C@@H](CC1CCCCC1)C(=O)O; NMeGly(cPr) = CN[C@H](C(=O)O)C1CC1; NMeI = CC[C@H](C)[C@H](NC)C(=O)O; NMeD = CN[C@@H](CC(=O)O)C(=O)O; NMeL = CN[C@@H](CC(C)C)C(=O)O; Ahp(2) = CCCCC[C@H](N)C(=O)O; NMeV = CN[C@H](C(=O)O)C(C)C; NMeA = CN[C@@H](C)C(=O)O; Nle = CCCC[C@H](N)C(=O)O; Piperidide = C1CCN(*)CC1; Pyrrolidide = C1CCN(*)C1; dNMeA = CN[C@H](C)C(=O)O; Ac5c = NC1(C(=O)O)CCCC1; Aze = O=C(O)[C@@H]1CCN1; Cyclopropyl = C1CC1*; Sar = CNCC(=O)O; Propyl = CCC* A value given as a limit tells only on which side of the number the result lay.

Assay [1] concerns the target protein-protein interaction between Kras and SOS1 (biotin-tagged human Kras loaded with GDP, His-tagged human SOS1) (Homo sapiens (Human), UniProt P01116, G12D). The assay can be described thus: Protein-protein interaction inhibition between Kras and SOS1 (KrasG12D-SOS PPI) using AlphaScreen.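 Note: kras produced in E. coli, Ni-coupled donor beads and streptavidin acceptor beads, excitation 680 nm with emission detected at 520–620 nm via singlet oxygen transfer.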 The following applies: AlphaScreen; biotin-tagged human Kras loaded with GDP, His-tagged human SOS1; read-out: KRAS G12D-SOS PPI IC50. Format: biochemical. (In Alpha technology, singlet oxygen from a donor bead excites a nearby acceptor bead.)

Assay [2] deals with Human pancreatic cancer cell line AsPC-1 (G12D mutation Kras). As to the kind of experiment: AsPC-1 cell growth inhibition (AsPC-1 CGI). Format: cell-based. The following applies: read-out: AsPC-1 cell growth inhibition, 50% growth inhibitory concentration (IC50 value); 96 hours, CellTiter-Glo, values classified in ranges. For orientation: ATP-based viability assays read luminescence as a measure of living cells.
Procedure: Test compounds were serially dilated with dimethyl sulfoxide, and 200 nL was then dispensed to a U-bottom 96-well plate using Labcyte Echo. […] The cell suspension was dispensed to a. plate containing a test compound at 100 μL per well and incubated at 37° C. in a 5% carbon dioxide gas incubator. 96 hours later, 80 μL of CellTiter-Glo (Promega) was added to each well and fluorescence was measured.

Consider `CC(C)C[C@H]1C(=O)N[C@@H](C)C(=O)N(C)[C@@H](C)C(=O)N2CC[C@H]2C(=O)N(C)[C@@H](CC2CCCCC2)C(=O)N(C)CC(=O)N[C@@H](CCc2ccc(C(F)(F)F)c(Cl)c2)C(=O)N2CCC[C@H]2C(=O)NC2(CCCC2)C(=O)N(C)[C@@H](C(C)C)C(=O)N(C)[C@H](C(=O)N2CCCCC2)CC(=O)N1C` [Compound 1780] ([NMeL]A[NMeA][Aze][NMeCha][Sar][hPhe(3-Cl-4-CF3)]P[Ac5c][NMeV][NMeD]-Piperidide; lactam N-11), for which the IC50 was 120 nM in assay [1] and over 500 nM in assay [2].

Regarding `CC[C@H](C)[C@@H]1NC(=O)[C@H](CC(C)C)N(C)C(=O)C[C@@H](C(=O)N2CCCCC2)N(C)C(=O)[C@H](C2CCCC2)N(C)C(=O)C2(CCCC2)NC(=O)[C@@H]2CCCN2C(=O)[C@H](CCc2ccc(C(F)(F)F)c(Cl)c2)NC(=O)CN(C)C(=O)[C@H](CC2CCCCC2)N(C)C(=O)[C@@H]2CCN2C(=O)[C@H](C)N(C)C1=O` [Compound 1787] ([NMeL]I[NMeA][Aze][NMeCha][Sar][hPhe(3-Cl-4-CF3)]P[Ac5c][NMeGly(cPent)][NMeD]-Piperidide; lactam N-11), the figures for the IC50 in assay [1] and in assay [2] were 1.1 nM and at most 20 nM, respectively.

With `CC[C@H](C)[C@@H]1NC(=O)[C@H](CC(C)C)N(C)C(=O)C[C@@H](C)N(C)C(=O)[C@H]([C@@H](C)CC)N(C)C(=O)C2(CCCC2)NC(=O)[C@@H]2CCCN2C(=O)[C@H](CCc2ccc(C(F)(F)F)c(Cl)c2)NC(=O)CN(C)C(=O)[C@H](Cc2ccc(C)cc2)N(C)C(=O)[C@@H]2CCN2C(=O)[C@H](C)N(C)C1=O` [Compound 1793] (cyclo([Ac5c][NMeI][NMedβ3hAla][NMeL]I[NMeA][Aze][NMePhe(4-Me)][Sar][hPhe(3-Cl-4-CF3)]P)), the IC50 in assay [1] is 1.9 nM; in assay [2], at most 20 nM.

For `CC[C@H](C)[C@@H]1NC(=O)[C@H](CC(C)C)N(C)C(=O)C[C@@H](C)N(C)C(=O)[C@H](C(C)C)N(C)C(=O)C2(CCCC2)NC(=O)[C@@H]2CCCN2C(=O)[C@H](CCc2ccc(C(F)(F)F)c(Cl)c2)NC(=O)CN(C)C(=O)[C@H](Cc2ccc(C)cc2)N(C)C(=O)[C@@H]2CCN2C(=O)[C@H](C)N(C)C1=O` [Compound 1809] (cyclo([Ac5c][NMeV][NMedβ3hAla][NMeL]I[NMeA][Aze][NMePhe(4-Me)][Sar][hPhe(3-Cl-4-CF3)]P)), the IC50 in assay [1] was 1.4 nM; in assay [2], at most 20 nM.

Consider `CC(C)C[C@H]1C(=O)N[C@@H](COC2CC2)C(=O)N(C)[C@@H](C)C(=O)N2CC[C@H]2C(=O)N(C)[C@@H](CC2CCCCC2)C(=O)N(C)CC(=O)N[C@@H](CCc2ccc(C(F)(F)F)c(Cl)c2)C(=O)N2CCC[C@H]2C(=O)NC2(CCCC2)C(=O)N(C)[C@@H](C(C)C)C(=O)N(C)[C@H](C(=O)N2CCCCC2)CC(=O)N1C` [Compound 1811] ([NMeL]S(Cyclopropyl)[NMeA][Aze][NMeCha][Sar][hPhe(3-Cl-4-CF3)]P[Ac5c][NMeV][NMeD]-Piperidide; lactam N-11), for which the IC50 in assay [1] was 56 nM; in assay [2], over 500 nM.

Take `CC[C@H](C)[C@@H]1NC(=O)[C@H](C)N(C)C(=O)C[C@@H](C(=O)N2CCCCC2)N(C)C(=O)[C@H](C(C)C)N(C)C(=O)C2(CCCC2)NC(=O)[C@@H]2CCCN2C(=O)[C@H](CCc2ccc(C(F)(F)F)c(Cl)c2)NC(=O)[C@@H](C)N(C)C(=O)[C@H](Cc2ccc(F)cc2)N(C)C(=O)[C@@H]2CCN2C(=O)[C@H](C)N(C)C1=O` [Compound 1816] ([NMeA]I[NMeA][Aze][NMePhe(4-F)][dNMeA][hPhe(3-Cl-4-CF3)]P[Ac5c][NMeV][NMeD]-Piperidide; lactam N-11): the IC50 in assay [1] was 12 nM; in assay [2], over 500 nM.

As for `CC[C@H](C)[C@@H]1NC(=O)[C@H](CC(C)C)N(C)C(=O)C[C@@H](C(=O)N2CCCCC2)N(C)C(=O)[C@H](CC2CCCC2)N(C)C(=O)C2(CCCC2)NC(=O)[C@@H]2CCCN2C(=O)[C@H](CCc2ccc(C(F)(F)F)c(Cl)c2)NC(=O)CN(C)C(=O)[C@H](CC2CCCCC2)N(C)C(=O)[C@@H]2CCN2C(=O)[C@H](C)N(C)C1=O` [Compound 1820] ([NMeL]I[NMeA][Aze][NMeCha][Sar][hPhe(3-Cl-4-CF3)]P[Ac5c][NMeAla(cPent)][NMeD]-Piperidide; lactam N-11), the IC50 in assay [1] is 14 nM; in assay [2], over 500 nM.

As for `CC[C@H](C)[C@@H]1NC(=O)[C@H](CC(C)C)N(C)C(=O)C[C@@H](C(=O)N2CCCCC2)N(C)C(=O)[C@H](C2CC2)N(C)C(=O)C2(CCCC2)NC(=O)[C@@H]2CCCN2C(=O)[C@H](CCc2ccc(C(F)(F)F)c(Cl)c2)NC(=O)CN(C)C(=O)[C@H](CC2CCCCC2)N(C)C(=O)[C@@H]2CCN2C(=O)[C@H](C)N(C)C1=O` [Compound 1822] ([NMeL]I[NMeA][Aze][NMeCha][Sar][hPhe(3-Cl-4-CF3)]P[Ac5c][NMeGly(cPr)][NMeD]-Piperidide; lactam N-11), the IC50 is 50 nM in assay [1] and over 500 nM in assay [2].

As for `CCCC[C@@H]1NC(=O)[C@H](CC(C)C)N(C)C(=O)C[C@@H](C(=O)N2CCCCC2)N(C)C(=O)[C@H](C(C)C)N(C)C(=O)C2(CCCC2)NC(=O)[C@@H]2CCCN2C(=O)[C@H](CCc2ccc(C(F)(F)F)c(Cl)c2)NC(=O)CN(C)C(=O)[C@H](CC2CCCCC2)N(C)C(=O)[C@@H]2CCN2C(=O)[C@H](C)N(C)C1=O` [Compound 1823] ([NMeL][Nle][NMeA][Aze][NMeCha][Sar][hPhe(3-Cl-4-CF3)]P[Ac5c][NMeV][NMeD]-Piperidide; lactam N-11), the values for the IC50 in assay [1] and in assay [2] were 59 nM and over 500 nM, respectively.

`CCCCC[C@@H]1NC(=O)[C@H](CC(C)C)N(C)C(=O)C[C@@H](C(=O)N2CCCCC2)N(C)C(=O)[C@H](C(C)C)N(C)C(=O)C2(CCCC2)NC(=O)[C@@H]2CCCN2C(=O)[C@H](CCc2ccc(C(F)(F)F)c(Cl)c2)NC(=O)CN(C)C(=O)[C@H](CC2CCCCC2)N(C)C(=O)[C@@H]2CCN2C(=O)[C@H](C)N(C)C1=O` [Compound 1826] ([NMeL][Ahp(2)][NMeA][Aze][NMeCha][Sar][hPhe(3-Cl-4-CF3)]P[Ac5c][NMeV][NMeD]-Piperidide; lactam N-11): the IC50 in assay [1] was 99 nM; in assay [2], over 500 nM.

As to `CC[C@H](C)[C@@H]1NC(=O)[C@H](C)N(C)C(=O)C[C@@H](C(=O)N2CCCC2)N(C)C(=O)[C@H](C(C)C)N(C)C(=O)C2(CCCC2)NC(=O)[C@@H]2CCCN2C(=O)[C@H](CCc2ccc(C(F)(F)F)c(Cl)c2)NC(=O)[C@@H](C)N(C)C(=O)[C@H](CC2CCCCC2)N(C)C(=O)[C@@H]2CCN2C(=O)[C@H](C)N(C)C1=O` [Compound 1827] ([NMeA]I[NMeA][Aze][NMeCha][dNMeA][hPhe(3-Cl-4-CF3)]P[Ac5c][NMeV][NMeD]-Pyrrolidide; lactam N-11), the IC50 in assay [1] was 6.6 nM; in assay [2] it was over 500 nM.

For `CCCOC[C@@H]1NC(=O)[C@H](CC(C)C)N(C)C(=O)C[C@@H](C(=O)N2CCCCC2)N(C)C(=O)[C@H](C(C)C)N(C)C(=O)C2(CCCC2)NC(=O)[C@@H]2CCCN2C(=O)[C@H](CCc2ccc(C(F)(F)F)c(Cl)c2)NC(=O)CN(C)C(=O)[C@H](CC2CCCCC2)N(C)C(=O)[C@@H]2CCN2C(=O)[C@H](C)N(C)C1=O` [Compound 1831] ([NMeL]S(Propyl)[NMeA][Aze][NMeCha][Sar][hPhe(3-Cl-4-CF3)]P[Ac5c][NMeV][NMeD]-Piperidide; lactam N-11), the IC50 in assay [1] is 71 nM; in assay [2], over 500 nM.

The values above are taken from patent US20240148821A1, “PHARMACEUTICAL USE OF CYCLIC PEPTIDE COMPOUND” (CHUGAI SEIYAKU KABUSHIKI KAISHA, priority 2021, published 2024).
